Measured values: patent US20100144606A1, “COMBINATION 408” (AstraZeneca AB, priority 2008, published 2010)
Structures can show the parent of a compound that is named as a salt.

Columns and labels:
[1] = Gravimetric Vapour Sorption (GVS); format: physicochemical; settings: at 80% RH (±0.2%)
Procedure: Instrument Details: • X-Ray Powder Diffraction (XRPD)—PANalytical X'Pert machine in 2Ø-Ø configuration or a PANalytical Cubix machine in Ø-Ø configuration over the scan range 2° to 40° 2Ø with 100-second exposure per 0.02° increment. The X-rays were generated by a copper long-fine focus tube operated at 45 kV and 40 mA. […] The Data was collected on zero background holders on which ˜2 mg of the compound was placed. The holder was made from a single crystal of silicon, which had been cut along a non-diffracting plane and then polished on an optically flat finish. The X-rays incident upon this surface were negated by Bragg extinction. • Differential Scanning Calorimetry (DSC) thermograms were measured using a TA Q1000 Differential Scanning Calorimeter, with aluminium pans and pierced lids. The sample weights varied between 0.5 to 5 mg. The procedure was carried out under a flow of nitrogen gas (50 mL/min) and the temperature studied from 30 to 230° C. at a constant rate of temperature increase of 10° C. per minute. • Gravimetric Vapour Sorption (GVS) profiles were measured using a Surface Measurements Systems Dynamic Vapour Sorption DVS-1 or a DVS Advantage instrument. The solid sample ca. 1-5 mg was placed into a glass vessel and the weight of the sample was recorded during a dual cycle step method (40 to 90 to 0 to 90 to 0% relative humidity (RH), in steps of 10% RH).

[2] = tested on: guinea pig trachea; experiment: Bronchodilator activity in the guinea pig isolated tracheal ring preparation; format: cell-based; settings: 60 min, methacholine (1 μM) contracted, mean±s.e.mean
Procedure: Evaluation of Bronchodilator Activity in the Guinea Pig Isolated Tracheal Ring Preparation
Guinea pigs (300-500 g) were killed by cervical dislocation and the trachea was isolated. The trachea was cut into segments 2-3 cartilage rings in width and suspended in 10 ml organ baths in modified Krebs' solution (mM; NaCl, 90; NaHCO3, 45; KCl, 5; MgSO4.7H2O, 0.5; Na2HPO4.2H2O, 1; CaCl2, 2.25; glucose, 10; pH 7.4 gassed with 5% CO2, 95% O2 at 37° C.). The tracheal rings were attached to an isometric force transducer for the measurement of isometric tension. The tissues were washed and a force of 1 g was applied to each tissue. The rings were contracted with methacholine (1 μM). Once the contraction had reached a plateau, vehicle (0.01% DMSO in distilled H2O), compound W (1 nM or 3 nM), compound X (1 nM), compound Y (1 nM), a combination of compound W (3 nM) and compound X (1 nM), or a combination of compound W (1 nM) and compound Y (1 nM) was added and the tissue left for 60 min. The tension was measured in each ring at 60 min following compound addition and was expressed as a % relaxation of the constriction to methacholine (1 μM) (mean±s.e.mean). Data were collected using the Chart 4 software (ADInstruments, Charlgrove, UK).

[3] = target: T1, β2 adrenoceptor (Homo sapiens, UniProt P07550); experiment: Adrenergic β mediated cAMP production in H292 cells (AlphaScreen); format: cell-based; settings: Intrinsic Activity as a fraction relative to the maximum activity of formoterol
T1 construct: Adherent H292 cells were removed from tissue culture flasks; endogenous in cells; host or cells: H292 cells
Procedure: Adrenergic β Mediated cAMP Production.
Cell preparation. H292 cells were grown in 225 cm2 flasks incubator at 37° C., 5% CO2 in RPMI medium containing, 10% (v/v) FBS (foetal bovine serum) and 2 mM L-glutamine.
Experimental Method. Adherent H292 cells were removed from tissue culture flasks by treatment with Accutase™ cell detachment solution for 15 minutes. Flasks were incubated for 15 minutes in a humidified incubator at 37° C., 5% CO2. Detached cells were re-suspended in RPMI media (containing 10% (v/v) FBS and 2 mM L-glutamine) at 0.05×10^6 cells per mL. 5000 cells in 100 μL were added to each well of a tissue-culture-treated 96-well plate and the cells incubated overnight in a humidified incubator at 37° C., 5% CO2. […]
AlphaScreen™ cAMP detection. The concentration of cAMP (cyclic adenosine monophosphate) in the cell lysate was determined using AlphaScreen™ methodology. […] The AlphaScreen™ signal was measured using an EnVision spectrophotometer (Perkin-Elmer Inc.) with the recommended manufacturer's settings. cAMP concentrations were determined by reference to a calibration curve determined in the same experiment using standard cAMP concentrations. […] Intrinsic Activity was expressed as a fraction relative to the maximum activity determined for formoterol in each experiment. […]

T1 sequence (P07550 whole entry): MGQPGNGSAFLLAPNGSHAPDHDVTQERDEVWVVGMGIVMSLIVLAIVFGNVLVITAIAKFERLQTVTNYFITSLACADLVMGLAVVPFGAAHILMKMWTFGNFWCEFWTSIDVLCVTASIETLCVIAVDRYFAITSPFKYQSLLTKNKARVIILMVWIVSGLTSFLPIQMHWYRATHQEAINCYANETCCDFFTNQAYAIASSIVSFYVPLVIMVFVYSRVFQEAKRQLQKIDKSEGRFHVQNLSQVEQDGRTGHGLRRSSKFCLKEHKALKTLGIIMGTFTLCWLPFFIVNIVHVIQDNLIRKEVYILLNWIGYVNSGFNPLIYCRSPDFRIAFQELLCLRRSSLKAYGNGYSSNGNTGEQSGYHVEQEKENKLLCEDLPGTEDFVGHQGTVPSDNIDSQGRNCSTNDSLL

## C[C@@](C(=O)O[C@H]1C[N+]2(CCc3ccc(F)cc3)CCC1CC2)(c1ccccc1)N1CCCCC1.Cc1ccc(S(=O)(=O)[O-])cc1 [Preparation 16, (R)-1-(4-fluorophenethyl)-3-((S)-2-phenyl-2-(piperidin-1-yl)propanoyloxy)-1-azoniabicyclo[2.2.2]octane 4-methylbenzenesulphonate]
[1]
  GVS weight increase: 0.1 % w/w

## C[N+](C)(CCOCc1ccc(Cl)cc1)Cc1cnc([C@](O)(c2ccccc2)C2CCCCC2)o1.C[N+](C)(CCOCc1ccc(Cl)cc1)Cc1cnc([C@](O)(c2ccccc2)C2CCCCC2)o1.O=S(=O)([O-])c1cccc2c(S(=O)(=O)[O-])cccc12 [compound X, [2-(4-Chloro-benzyloxy)-ethyl]-[2-((R)-Cyclohexyl-hydroxy-phenyl-methyl)-oxazol-5-ylmethyl]-dimethyl-ammonium hemi-napadisylate salt, reference compound]
[2]; 1 nM, n=4, FIG. 29
  percentage relaxation: 1±0.5%

## O=C(CCNCCc1cccc(F)c1)N(CCNCCc1ccc(O)c2[nH]c(=O)sc12)C1CCCCC1 [Preparation 2, N-Cyclohexyl-N^3-[2-(3-fluorophenyl)ethyl]-N-(2-{[2-(4-hydroxy-2-oxo-2,3-dihydro-1,3-benzothiazol-7-yl)ethyl]amino}ethyl)-β-alaninamide dihydrobromide salt]
[3]
  β2 Int Act: 0.85

## C[C@@](C(=O)O[C@H]1C[N+]2(CCc3ccc(F)cc3)CCC1CC2)(c1ccccc1)N1CCCCC1.[Br-] [compound Y, (R)-1-[2-(4-Fluoro-phenyl)-ethyl]-3-((S)-2-phenyl-2-piperidin-1-yl-propionyloxy)-1-azonia-bicyclo[2.2.2]octane bromide]
[2]; 1 nM, n=6, FIG. 30
  percentage relaxation: 17±3.4%

## C[C@@](C(=O)O[C@H]1C[N+]2(CCc3ccc(F)cc3)CCC1CC2)(c1ccccc1)N1CCCCC1.[Br-] [Preparation 4 bromide Form A, (R)-1-[2-(4-Fluoro-phenyl)-ethyl]-3-((S)-2-phenyl-2-piperidin-1-yl-propionyloxy)-1-azonia-bicyclo[2.2.2]octane bromide (Form A)]
[1]
  GVS weight increase: 0.1 % w/w

## C[C@@](C(=O)O[C@H]1C[N+]2(CCc3ccc(F)cc3)CCC1CC2)(c1ccccc1)N1CCCCC1.[Br-] [Preparation 4 bromide Form C, (R)-1-[2-(4-Fluoro-phenyl)-ethyl]-3-((S)-2-phenyl-2-piperidin-1-yl-propionyloxy)-1-azonia-bicyclo[2.2.2]octane bromide (Form C)]
[1]
  GVS weight increase: 4 % w/w

## N-Cyclohexyl-N^3-[2-(3-fluorophenyl)ethyl]-N-(2-{[2-(4-hydroxy-2-oxo-2,3-dihydro-1,3-benzothiazol-7-yl)ethyl]amino}ethyl)-β-alaninamide di-D-Mandelate salt [Preparation 3 (Form A)]
[1]
  GVS weight increase: 1 % w/w
[2]; 1 nM, n=6, FIG. 30
  percentage relaxation: 48±3.9%
[2]; 3 nM, n=4, FIG. 29
  percentage relaxation: 46±10.7%
